Test results as given in patent US20100028469A1, “Extracts of Cranberry and Methods of Using Thereof” (priority 2008, published 2010).

What was measured:
[1] = Human pharmacokinetic study, urine (DART TOF-MS); assay type: in vivo
Procedure: (§1) Cranberry extracts 5 and 6 were prepared by HerbalScience Singapore Pte. Ltd. and prepared as 150-mg and 140-mg capsules, respectively. Each pharmacokinetic study (1 per extract) consisted of five healthy consenting adults ranging in age from 25 to 50 were instructed not to consume foods rich in phenolics 24 hours prior to the initiation of the study. A certified individual collected urine samples at several time intervals between 0 and 480 minutes after two capsules of a cranberry extract were ingested immediately after the time zero time point. Blood samples were handled with approved protocols and precautions, centrifuged to remove cells and the serum fraction was collected and frozen. Blood was not treated with heparin to avoid any analytical interference. Serum samples were stored frozen at −20° C. until analysis. The serum was extracted with an equal volume of neat ethanol (USP) to minimize background of proteins, peptides, and polysaccharides present in serum. The ethanol extract was centrifuged at 9300×g for 10 minutes at 4° C., the supernatant was removed, concentrated to 200 μL volume which was then used for DART TOF-MS analyses (FIG. 10). Urine samples were handled with approved protocols and precautions and frozen. Serum samples were stored frozen until analysis. The urine samples were analyzed neat by DART TOF-MS (FIGS. 11 and 12).

[2] = Human pharmacokinetic study, serum (DART TOF-MS); assay type: in vivo; conditions: 5 healthy adults, Extract 5 300 mg oral
Procedure: as §1

Compound	time of appearance in urine ([1]; human, in vivo, po)	time through which urine levels increased (declined thereafter) ([1]; human, in vivo, po)	presence in urine at 8 hours post-ingestion ([1]; in vivo, po)	time of appearance in urine ([1]; in vivo, po)	time through which urine levels increased (declined thereafter) ([1]; in vivo, po)	other results
O=C(O)c1ccc(O)cc1 [4-hydroxybenzoic acid]	≤ 1 h	2 h	still present			
C[C@@H](O)[C@H](N)C(=O)O [L-threonine]	≤ 1 h	2 h				
CC1=CC(=O)CC(C)(C)[C@@]1(O)/C=C/C(C)=C\C(=O)O [abscisic acid]						time after which undetectable in serum [2]: 180 min; time through which serum levels increased (declined thereafter) [2]: about 40 minutes; abundance in urine relative to other bioactives ([1]; Extract 5 300 mg oral): most abundant; time of peak level in urine ([1]; Extract 5 300 mg oral): 2 h; presence in urine at 8 hours post-ingestion ([1]; two vegcaps Extract 6 oral): still present; time through which urine levels increased (declined thereafter) ([1]; two vegcaps Extract 6 oral): 2 h
NCC(=O)CCC(=O)O [aminolevulenic acid]				≤ 1 h	2 h	
O=CC=Cc1ccccc1 [cinnamaldehyde]	≤ 1 h	2 h	still present			
COc1ccc(C2COc3cc(O)ccc3C2)c(O)c1 (stereo not shown) [vestitol]			still present	≤ 1 h	2 h	
c1ccc(-c2cc3ccccc3[nH]2)cc1 [α-phenylindol]			still present	≤ 1 h	2 h	
S-petasine						time after which undetectable in serum [2]: 180 min; time through which serum levels increased (declined thereafter) [2]: about 40 minutes; time through which urine levels increased (declined thereafter) ([1]; two vegcaps Extract 6 oral): 2 h
chitosan			still present	≤ 1 h	2 h	
